Experimental data published in patent US20240132531A1, “NOVEL GALACTOSIDE INHIBITOR OF GALECTINS” (GALECTO BIOTECH AB, priority 2020, published 2024).

Tests used:
galectin-3 = galectin-3 (Homo sapiens, UniProt P17931); assay: Fluorescence anisotropy assay, affinity for galectin-3; format: binding; details: compound as inhibitor of the interaction between galectin and a fluorescein tagged saccharide probe; read-out: Gal-3 Kd
Procedure: (§1) The affinity of Example 1-39 for galectins were determined by a fluorescence anisotropy assay where the compound was used as an inhibitor of the interaction between galectin and a fluorescein tagged saccharide probe as described Sarme, P., Kahl-Knutsson, B., Huflejt, M., Nilsson, U. J., and Leffler H. (2004) Fluorescence polarization as an analytical tool to evaluate galectin-ligand interactions. Anal. Biochem. 334: 36-47, (Sarme et al., 2004) and Monovalent interactions of Galectin-1 By Salomonsson, Emma; Larumbe, Amaia; Tejler, Johan; Tullberg, Erik; Rydberg, Hanna; Sundin, Anders; Khabut, Areej; Frejd, Torbjorn; Lobsanov, Yuri D.; Rini, James M.; et al, From Biochemistry (2010), 49(44), 9518-9532, (Salomonsson et al., 2010).

galectin-1 = galectin-1 (Homo sapiens, UniProt P09382); assay: Fluorescence anisotropy assay, affinity for galectin-1; format: binding; details: compound as inhibitor of the interaction between galectin and a fluorescein tagged saccharide probe; read-out: Gal-1 Kd
Procedure: as §1

galectin-1, sequence (P09382 whole entry): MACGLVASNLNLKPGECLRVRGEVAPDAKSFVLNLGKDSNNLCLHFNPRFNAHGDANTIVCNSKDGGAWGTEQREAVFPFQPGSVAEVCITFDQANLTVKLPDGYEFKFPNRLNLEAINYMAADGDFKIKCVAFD
galectin-3, sequence (P17931 whole entry): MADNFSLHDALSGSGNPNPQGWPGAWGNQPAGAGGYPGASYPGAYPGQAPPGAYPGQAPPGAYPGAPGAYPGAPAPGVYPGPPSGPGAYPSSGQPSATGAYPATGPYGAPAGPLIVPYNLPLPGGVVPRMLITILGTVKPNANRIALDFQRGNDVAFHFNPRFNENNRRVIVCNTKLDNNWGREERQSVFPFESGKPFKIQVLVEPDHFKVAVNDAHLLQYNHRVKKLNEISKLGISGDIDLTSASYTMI

| Compound | Kd (galectin-3) | Kd (galectin-1) |
| --- | --- | --- |
| COC1C(n2cc(-c3nc(Cl)cs3)nn2)[C@@H](O)C(CO)O[C@H]1c1ccnn1-c1cc(Cl)ccc1C(F)(F)F (stereo partly drawn) [Example 1, 1-{5-{3-[4-(4-Chlorothiazol-2-yl)-1H-1,2,3-triazol-1-yl]-3-deoxy-2-O-methyl-β-D-galactopyranosyl}-1H-1,2-pyrazol-1-yl}-5-chloro-2-(trifluoromethyl)benzene] | 450 nM | 36 nM |
| COC1C(n2cc(-c3nccs3)nn2)[C@@H](O)C(CO)O[C@H]1c1ccnn1-c1cc(Cl)ccc1C(F)(F)F (stereo partly drawn) [Example 2, 5-Chloro-1-{5-{3-deoxy-2-O-methyl-3-[4-(2-thiazolyl)-1H-1,2,3-triazol-1-yl]-β-D-galactopyranosyl}-1H-1,2-pyrazol-1-yl}-2-(trifluoromethyl)benzene] | 7560 nM | 170 nM |
| COC1C(n2cc(-c3ncc(C)s3)nn2)[C@@H](O)C(CO)O[C@H]1c1ccnn1-c1cc(Cl)ccc1C(F)(F)F (stereo partly drawn) [Example 3, 5-Chloro-1-{5-{3-deoxy-3-[4-(5-methylthiazol-2-yl)-1H-1,2,3-triazol-1-yl]-2-O-methyl-β-D-galactopyranosyl}-1H-1,2-pyrazol-1-yl}-2-(trifluoromethyl)benzene] | 440 nM | 470 nM |
| COC1C(n2cc(-c3nc(C)cs3)nn2)[C@@H](O)C(CO)O[C@H]1c1ccnn1-c1cc(Cl)ccc1C(F)(F)F (stereo partly drawn) [Example 4, 5-Chloro-1-{5-{3-deoxy-3-[4-(4-methylthiazol-2-yl)-1H-1,2,3-triazol-1-yl]-2-O-methyl-β-D-galactopyranosyl}-1H-1,2-pyrazol-1-yl}-2-(trifluoromethyl)benzene] | 3260 nM | 260 nM |
| OCC1O[C@@H](c2ccnn2-c2cc(Cl)ccc2C(F)(F)F)C(O)C(n2cc(-c3nccs3)nn2)[C@H]1O (stereo partly drawn) [Example 5, 5-Chloro-1-{5-{3-deoxy-3-[4-(2-thiazolyl)-1H-1,2,3-triazol-1-yl]-β-D-galactopyranosyl}-1H-1,2-pyrazol-1-yl}-2-(trifluoromethyl)benzene] | 4830 nM | 210 nM |
| Nc1nc(-c2cn(C3C(O)[C@H](c4ccnn4-c4cc(Cl)ccc4C(F)(F)F)OC(CO)[C@@H]3O)nn2)cs1 (stereo partly drawn) [Example 6, 1-{5-{3-[4-(2-Aminothiazol-4-yl)-1H-1,2,3-triazol-1-yl]-3-deoxy-β-D-galactopyranosyl}-1H-1,2-pyrazol-1-yl}-5-chloro-2-(trifluoromethyl)benzene] | 10800 nM | 120 nM |
| OCC1O[C@@H](c2ccnn2-c2cc(Cl)ccc2C(F)(F)F)C(O)C(n2cc(-c3csc(O)n3)nn2)[C@H]1O (stereo partly drawn) [Example 7, 5-Chloro-1-{5-{3-deoxy-3-[4-(2-hydroxythiazol-4-yl)-1H-1,2,3-triazol-1-yl]-β-D-galactopyranosyl}-1H-1,2-pyrazol-1-yl}-2-(trifluoromethyl)benzene] | 5830 nM | 29 nM |
| OCC1O[C@@H](c2ccnn2-c2cc(Cl)ccc2C(F)(F)F)C(O)C(n2cc(-n3ccc(Cl)n3)nn2)[C@H]1O (stereo partly drawn) [Example 8, 1-{5-{3-[4-(3-Chloro-1H-1,2-pyrazol-1-yl)-1H-1,2,3-triazol-1-yl]-3-deoxy-β-D-galactopyranosyl}-1H-1,2-pyrazol-1-yl}-5-chloro-2-(trifluoromethyl)benzene] | 880 nM | 270 nM |
| Cc1cc([C@@H]2OC(CO)[C@H](O)C(n3cc(-c4nc(Cl)cs4)nn3)C2O)n(-c2cc(Cl)ccc2C(F)(F)F)n1 (stereo partly drawn) [Example 9, 1-{5-{3-[4-(4-Chlorothiazol-2-yl)-1H-1,2,3-triazol-1-yl]-3-deoxy-β-D-galactopyranosyl}-3-methyl-1H-1,2-pyrazol-1-yl}-5-chloro-2-(trifluoromethyl)benzene] | 370 nM | 37 nM |
| OCC1O[C@@H](c2ccnn2-c2cc(Cl)ccc2C(F)(F)F)C(O)C(n2cc(-c3ncc(Cl)s3)nn2)[C@H]1O (stereo partly drawn) [Example 10, 1-{5-{3-[4-(5-Chlorothiazol-2-yl)-1H-1,2,3-triazol-1-yl]-3-deoxy-β-D-galactopyranosyl}-1H-1,2-pyrazol-1-yl}-5-chloro-2-(trifluoromethyl)benzene] | 330 nM | 43 nM |
| OCC1O[C@@H](c2ccnn2-c2cc(Cl)ccc2C(F)(F)F)C(O)C(n2cc(-c3nc(Cl)cs3)nn2)[C@H]1O (stereo partly drawn) [Example 11, 1-{5-{3-[4-(4-Chlorothiazol-2-yl)-1H-1,2,3-triazol-1-yl]-3-deoxy-β-D-galactopyranosyl}-1H-1,2-pyrazol-1-yl}-5-chloro-2-(trifluoromethyl)benzene] | 430 nM | 48 nM |
| COC1C(n2cc(-c3ncc(Cl)s3)nn2)[C@@H](O)C(CO)O[C@H]1c1ccnn1-c1cc(Cl)ccc1C(F)(F)F (stereo partly drawn) [Example 12, 1-{5-{3-[4-(5-Chlorothiazol-2-yl)-1H-1,2,3-triazol-1-yl]-3-deoxy-2-O-methyl-β-D-galactopyranosyl}-1H-1,2-pyrazol-1-yl}-5-chloro-2-(trifluoromethyl)benzene] | 390 nM | 24 nM |
| COC1C(n2cc(-c3nc(Cl)cs3)nn2)[C@@H](O)C(CO)O[C@H]1c1cc(C)nn1-c1cc(Cl)ccc1C(F)(F)F (stereo partly drawn) [Example 13, 1-{5-{3-[4-(4-Chlorothiazol-2-yl)-1H-1,2,3-triazol-1-yl]-3-deoxy-2-O-methyl-β-D-galactopyranosyl}-3-methyl-1H-1,2-pyrazol-1-yl}-5-chloro-2-(trifluoromethyl)benzene] | 290 nM | 36 nM |
| COC1C(n2cc(-c3nccs3)nn2)[C@@H](O)C(CO)O[C@H]1c1cc(C)nn1-c1cc(Cl)ccc1C(F)(F)F (stereo partly drawn) [Example 14, 5-Chloro-1-{5-{3-deoxy-2-O-methyl-3-[4-(2-thiazolyl)-1H-1,2,3-triazol-1-yl]-β-D-galactopyranosyl}-3-methyl-1H-1,2-pyrazol-1-yl}-2-(trifluoromethyl)benzene] | 5200 nM | 150 nM |
| COC1C(n2cc(-c3nc(Cl)cs3)nn2)[C@@H](O)C(CO)O[C@H]1c1cc(C)nn1-c1ccc2nc(C)sc2c1 (stereo partly drawn) [Example 15, 1-{5-{3-[4-(4-Chlorothiazol-2-yl)-1H-1,2,3-triazol-1-yl]-3-deoxy-2-O-methyl-β-D-galactopyranosyl}-3-methyl-1H-1,2-pyrazol-1-yl}-2-methylbenzothiazole] | 2000 nM | 67 nM |
| COC1C(n2cc(-c3nc(Cl)cs3)nn2)[C@@H](O)C(CO)O[C@H]1c1ccnn1-c1ccc2nc(C)sc2c1 (stereo partly drawn) [Example 16, 1-{5-{3-[4-(4-Chlorothiazol-2-yl)-1H-1,2,3-triazol-1-yl]-3-deoxy-2-O-methyl-β-D-galactopyranosyl}-1H-1,2-pyrazol-1-yl}-2-methylbenzothiazole] | 1500 nM | 38 nM |
| CCOC(=O)c1cc([C@@H]2OC(CO)[C@H](O)C(n3cc(-c4nc(Cl)cs4)nn3)C2OC)n(-c2cc(Cl)ccc2C(F)(F)F)n1 (stereo partly drawn) [Example 17, 1-{5-{3-[4-(4-Chlorothiazol-2-yl)-1H-1,2,3-triazol-1-yl]-3-deoxy-2-O-methyl-β-D-galactopyranosyl}-3-ethoxycarbonyl-1H-1,2-pyrazol-1-yl}-5-chloro-2-(trifluoromethyl)benzene] | 880 nM | 240 nM |
| COC1C(n2cc(-c3nc(Cl)cs3)nn2)[C@@H](O)C(CO)O[C@H]1c1cc(C(=O)O)nn1-c1cc(Cl)ccc1C(F)(F)F (stereo partly drawn) [Example 18, 1-{3-Carboxy-5-{3-[4-(4-chlorothiazol-2-yl)-1H-1,2,3-triazol-1-yl]-3-deoxy-2-O-methyl-β-D-galactopyranosyl}-1H-1,2-pyrazol-1-yl}-5-chloro-2-(trifluoromethyl)benzene] | 320 nM | 420 nM |
| OCC1O[C@@H](c2ccnn2-c2cc(Br)ccc2C(F)(F)F)C(O)C(n2cc(-c3nc(Cl)cs3)nn2)[C@H]1O (stereo partly drawn) [Example 19, 5-Bromo-1-{5-{3-[4-(4-chlorothiazol-2-yl)-1H-1,2,3-triazol-1-yl]-3-deoxy-β-D-galactopyranosyl}-1H-1,2-pyrazol-1-yl}-2-(trifluoromethyl)benzene] | 280 nM | 43 nM |
| COC1C(n2cc(-c3nc(Cl)cs3)nn2)[C@@H](O)C(CO)O[C@H]1c1ccnn1-c1cc(Br)ccc1C(F)(F)F (stereo partly drawn) [Example 20, 5-Bromo-1-{5-{3-[4-(4-chlorothiazol-2-yl)-1H-1,2,3-triazol-1-yl]-3-deoxy-2-O-methyl-β-D-galactopyranosyl}-1H-1,2-pyrazol-1-yl}-2-(trifluoromethyl)benzene] | 410 nM | 31 nM |
| COC1C(n2cc(-c3nc(Cl)cs3)nn2)[C@@H](O)C(CO)O[C@H]1c1ccnn1-c1cc(Cl)c(Cl)cc1C(F)(F)F (stereo partly drawn) [Example 21, 1-{5-{3-[4-(4-Chlorothiazol-2-yl)-1H-1,2,3-triazol-1-yl]-3-deoxy-2-O-methyl-β-D-galactopyranosyl}-1H-1,2-pyrazol-1-yl}-4,5-dichloro-2-(trifluoromethyl)benzene] | 1100 nM | 35 nM |
| COC1C(n2cc(-c3nc(Cl)cs3)nn2)[C@@H](O)C(CO)O[C@H]1c1ccnn1-c1cc(Cl)c(F)cc1C(F)(F)F (stereo partly drawn) [Example 22, 1-{5-{3-[4-(4-Chlorothiazol-2-yl)-1H-1,2,3-triazol-1-yl]-3-deoxy-2-O-methyl-β-D-galactopyranosyl}-1H-1,2-pyrazol-1-yl}-5-chloro-4-fluoro-2-(trifluoromethyl)benzene] | 850 nM | 43 nM |
| COC1[C@@H](n2cc(-c3nc(Cl)cs3)nn2)[C@@H](O)C(CO)O[C@H]1c1ccnn1-c1cc(Br)c(F)cc1C(F)(F)F (stereo partly drawn) [Example 23, 5-Bromo-1-{5-{3-[4-(4-chlorothiazol-2-yl)-1H-1,2,3-triazol-1-yl]-3-deoxy-2-O-methyl-β-D-galactopyranosyl}-1H-1,2-pyrazol-1-yl}-4-fluoro-2-(trifluoromethyl)benzene] | 290 nM | 24 nM |
